This is an account of results in EPA's ToxValDB 9.5.

Several values for one entry are separate records, joined by “and”; a condition that tells them apart may be missing. Identical values can stand only once.

The test system of data set [1] is Rattus norvegicus. As to conditions: for LC50 / LD50: acute.
The subject of data set [2] is Rattus norvegicus. As to conditions: oral, gavage.
Where [3] appears, read: reproduction developmental, duration: 103 weeks, oral, drinking water, generation: F0.
Setting [4] is: reproduction developmental, duration: 104 weeks, oral, drinking water.
[5] abbreviates: reproduction developmental, duration: 59 days, oral, drinking water.
Setting [6] is: subchronic, duration: 90 days, oral, diet, Sprague-Dawley.
Setting [7] is: reproduction developmental, F, Crl:CD(SD), generation: P0, P0: Endocrine: Adrenal: Adrenal Gland Histopathology + P0: Endocrine: Adrenal: Adrenal Gland Weight, Absolute + P0: Endocrine: Adrenal: ….
Setting [8] is: reproduction developmental, F, Crl:CD(SD), generation: P0, P0: Hematologic: Multi-Organ: Activated Partial Thromboplastin Time (APTT) + P0: Hematologic: Multi-Organ: Hematocrit (HCT) + P0: ….
Where [9] appears, read: reproduction developmental, M, Crl:CD(SD), generation: P0, P0: Endocrine: Adrenal: Adrenal Gland Histopathology + P0: Endocrine: Adrenal: Adrenal Gland Weight, Absolute + P0: Endocrine: Adrenal: ….
Setting [10] is: reproduction developmental, M, Crl:CD(SD), generation: P0, P0: Hematologic: Multi-Organ: Activated Partial Thromboplastin Time (APTT) + P0: Hematologic: Multi-Organ: Hematocrit (HCT) + P0: ….
[11] abbreviates: short-term, duration: 10 days, M, Sprague-Dawley, Endocrine: Multi-Organ: Follicle Stimulating Hormone (FSH), Serum + Endocrine: Multi-Organ: Leuteinizing Hormone (LH), Serum + Endocrine: ….
Where [12] appears, read: short-term, duration: 10 days, M, Sprague-Dawley, Endocrine: Multi-Organ: Testosterone (T), Serum + Reproductive: Epididymis: Epididymis Weight, Absolute + Reproductive: Epididymis: ….

The NOAEL is the highest dose or exposure tested at which no adverse effect was seen. With `COC(=O)CC(C)=O` [Methyl acetoacetate], the NOAEL is more than 1000 mg/kg-day in the data set with Rattus norvegicus [1] (developmental, oral, gavage, Crj:CD(SD)); 1000 mg/kg-day with Rattus norvegicus [1] (short-term, duration: 4 weeks, oral, gavage, F, Sprague-Dawley); 1000 mg/kg-day with Rattus norvegicus [1] (short-term, duration: 4 weeks, oral, gavage, M, Sprague-Dawley).

Broadly, the LOAEL is the lowest tested level that showed an adverse finding. Consider `O=c1[n-]c(=O)[nH]c(=O)[nH]1.[Na+]` [Monosodium cyanurate], for which the NOAEL in the data set with Rattus norvegicus [1] (developmental, duration: 103 weeks, oral, drinking water) is 5380 ppm; in the data set on Rattus norvegicus [1] (developmental, duration: 10 days, oral, gavage, COBSCD (Charles River)), more than 5000 mg/kg-day; in the data set on Rattus norvegicus [1] (reproduction developmental, duration: 13 weeks, oral, drinking water), not below 5380 ppm; with Rattus norvegicus [1] (setting [3]), 1200 ppm; in the data set with Rattus norvegicus [1] (reproduction developmental, duration: 103 weeks, oral, drinking water, generation: F1), 5380 ppm; in the data set with Rattus norvegicus [1] (reproduction developmental, duration: 103 weeks, oral, drinking water, generation: F2), 5380 ppm. Besides, the NOAEL is 2400 ppm with Rattus norvegicus [1] (setting [4]); more than 5000 mg/kg-day in the data set with Rattus norvegicus [1] (reproduction developmental, duration: 10 days, oral, gavage, F, COBSCD (Charles River)); ≥ 400 ppm and ≤ 1200 ppm in the data set with Rattus norvegicus [1] (setting [5]). The LOAEL in the data set with Rattus norvegicus [1] (setting [3]) is 5380 ppm; in the data set on Rattus norvegicus [1] (setting [4]), 5380 ppm; with Rattus norvegicus [1] (setting [5]), not below 2000 ppm.

With `CCC(C)Nc1ccc(NC(C)CC)cc1` (configuration not stated) [N,N'-Bis(1-methylpropyl)-1,4-benzenediamine], the LC50 in the data set on Rattus norvegicus [1] (inhalation, Sprague-Dawley) was more than 0.2 µg/mL. In the data set on Rattus norvegicus [1] (short-term, duration: 28 days, oral, gavage, Sprague-Dawley), this molecule yielded an LOAEL of 10 mg/kg-day. In the data set on Rattus norvegicus [1] (setting [6]), this molecule had an LOAEL of 500 mg/kg-day and an NOAEL of 100 mg/kg-day.

As usually defined, the LD50 is the dose at which mortality reaches 50%. Lower therefore signals a more toxic substance. `COc1ccccc1NC(=O)CC(C)=O` [N-(2-Methoxyphenyl)-3-oxobutanamide] gave an LD50 in the data set on Rattus norvegicus [1] (oral, gavage, Crj:CD) of 1640 mg/kg.

In turn, `CCCCNS(=O)(=O)c1ccccc1` [N-Butylbenzenesulfonamide] registered an LC50 in the data set with Rattus norvegicus [1] (Inhalation, Wistar) of more than 4070 mg/m3.

With `O=C([O-])CCCCCCCC(=O)[O-].[Li+].[Li+]` [Nonanedioic acid, dilithium salt], in the data set with Rattus norvegicus [1] (subchronic, duration: 90 days, oral, gavage, Sprague-Dawley), the NOAEL is 1000 mg/kg-day.

In the case of `O=C(O)C(F)(F)C(F)(F)C(F)(F)C(F)(F)C(F)(F)C(F)(F)C(F)(F)C(F)(F)C(F)(F)C(F)(F)C(F)(F)C(F)(F)C(F)(F)F` [Perfluorotetradecanoic acid], the NOAEL was 1 mg/kg-day and 3 mg/kg-day with Rattus norvegicus [2] (developmental, F, Crl:CD(SD), generation: F1, F1: Developmental: Whole Body: Body Weight, Birth + F1: Developmental: Whole Body: Body Weight, Pup, PND 1 + F1: Developmental: Whole Body: …); 1 mg/kg-day and 3 mg/kg-day in the data set with Rattus norvegicus [2] (developmental, M/F, Crl:CD(SD), generation: F1, F1: Developmental: Whole Body: Litter Size + F1: Developmental: Whole Body: Male Pups per Pups Sexed + F1: Developmental: Whole Body: Mean …); 1 mg/kg-day and 3 mg/kg-day with Rattus norvegicus [2] (developmental, M, Crl:CD(SD), generation: F1, F1: Developmental: Whole Body: Body Weight, Birth + F1: Developmental: Whole Body: Body Weight, Pup, PND1 + F1: Developmental: Whole Body: …); 1 mg/kg-day in the data set with Rattus norvegicus [2] (setting [7]); 3 mg/kg-day in the data set with Rattus norvegicus [2] (setting [8]); 1 mg/kg-day in the data set on Rattus norvegicus [2] (setting [9]). For the same molecule, the NOAEL with Rattus norvegicus [2] (setting [10]) was determined as 3 mg/kg-day; in the data set with Rattus norvegicus [2] (setting [11]), 10 mg/kg-day; in the data set on Rattus norvegicus [2] (short-term, duration: 10 days, M, Sprague-Dawley, Endocrine: Multi-Organ: Follicle Stimulating Hormone (FSH), Serum + Endocrine: Multi-Organ: Leuteinizing Hormone (LH), Serum + Whole Body: …) it was 20 mg/kg-day; in the data set with Rattus norvegicus [2] (setting [12]), 10 mg/kg-day. For the same molecule, the LOAEL with Rattus norvegicus [2] (reproduction developmental, F, Crl:CD(SD), generation: P0, P0: Cardiovascular: Heart: Heart Histopathology + P0: Cardiovascular: Heart: Heart Weight, Absolute + P0: Cardiovascular: Heart: Heart …) stood at 3 mg/kg-day; in the data set on Rattus norvegicus [2] (setting [7]), 3 mg/kg-day; in the data set with Rattus norvegicus [2] (setting [8]), 10 mg/kg-day; with Rattus norvegicus [2] (reproduction developmental, M, Crl:CD(SD), generation: P0, P0: Cardiovascular: Heart: Heart Histopathology + P0: Cardiovascular: Heart: Heart Weight, Absolute + P0: Cardiovascular: Heart: Heart …), 3 mg/kg-day; in the data set on Rattus norvegicus [2] (setting [9]), 3 mg/kg-day; in the data set with Rattus norvegicus [2] (setting [10]), 10 mg/kg-day. Further, the lowest observed adverse effect level (LOAEL) in the data set with Rattus norvegicus [2] (setting [11]) and with Rattus norvegicus [2] (setting [12]) was 20 mg/kg-day in each case.

Take `O.O.O=c1nc([O-])n(Cl)c(=O)n1Cl.[Na+]` [Sodium dichloroisocyanurate dihydrate]: the LD50 in the data set with Rattus norvegicus [1] (dermal, Sprague-Dawley) was more than 5000 mg/kg; in the data set with Rattus norvegicus [1] (oral, gavage, Sprague-Dawley), 1820 mg/kg.

The molecule `NNC(=S)NN` [Thiocarbazide] had an LD50 in the data set with Rattus norvegicus [1] (dermal, Wistar) of more than 500 mg/kg. The LC50 in the data set on Rattus norvegicus [1] (inhalation, Wistar) was 50 mg/m3 and > 75.5 mg/m3.

`c1ccc(B(c2ccccc2)c2ccccc2)cc1` [Triphenylborane] came in with a 50% lethal dose (LD50) in the data set on Rattus norvegicus [1] (oral, gavage, Sprague-Dawley) of 196 mg/kg.

Consider `c1ccc(-c2ccccc2-c2ccccc2)cc1` [o-Terphenyl], for which the “LOAEL (% diet)” value in the data set on Rattus norvegicus [1] (short-term, duration: 14 days, oral, diet, Wistar) is 0.2. In the data set on Rattus norvegicus [1] (subchronic, duration: 30 days, oral, diet, Sprague-Dawley), this molecule displayed an NOAEL of 100 mg/kg-day.
